Assay results from publication PMC4467547 (Journal of Medicinal Chemistry, 2015).
Residue numbers refer to the chain shown, from its start.

Experiments:
human plasma stability = assay type: in vitro ADME; settings: 1 h, 37 °C
reactivity with GSH = assay type: physicochemical; settings: GSH 2 mM, 2 equiv, 50 mM HEPES pH 7.4, 2 h at 37 °C
[1] = aqueous stability under simulated physiological conditions; assay type: physicochemical; settings: 50 mM HEPES, pH 7.4, 37 °C, 24 h
WT HDAC8 (Zn2+) = molecular target: T1, WT HDAC8 (Zn2+) (Homo sapiens, UniProt Q9BY41); experiment: HDAC8 time-course inhibition; assay type: biochemical
T1 sequence (Q9BY41 1-377): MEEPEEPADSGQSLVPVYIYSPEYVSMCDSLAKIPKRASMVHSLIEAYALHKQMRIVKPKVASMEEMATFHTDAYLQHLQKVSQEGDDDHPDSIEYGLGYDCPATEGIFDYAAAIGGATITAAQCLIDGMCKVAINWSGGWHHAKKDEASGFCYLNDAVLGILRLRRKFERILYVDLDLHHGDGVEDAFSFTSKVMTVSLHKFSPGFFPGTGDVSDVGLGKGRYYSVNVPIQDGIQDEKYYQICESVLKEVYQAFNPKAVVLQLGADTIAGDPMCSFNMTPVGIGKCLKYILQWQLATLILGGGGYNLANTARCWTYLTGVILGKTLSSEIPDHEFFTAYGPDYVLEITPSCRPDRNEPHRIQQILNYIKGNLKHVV

[2] = stability in the presence of assay components BSA or trypsin; assay type: physicochemical; settings: BSA (5 mg/mL) or trypsin (5 mg/mL), 37 °C, 2 h; data not shown
[3] = test system: tubulin acetylation in Jurkat cells; experiment: western blot analysis of tubulin acetylation; assay type: cell-based; settings: 6 and 20 μM, 4 h
HH (CTCL) cells = experiment: MTS cell proliferation assay; assay type: cell-based
[4] = test system: tubulin acetylation in HH cells; experiment: western blot analysis of tubulin acetylation; assay type: cell-based; settings: 6 and 20 μM, 4 h
C153A HDAC8 = molecular target: T2, C153A HDAC8 (Homo sapiens, UniProt Q9BY41, C153A); experiment: HDAC8 time-course inhibition; settings: SAHA 0-8 μM, SAHA-OBn 0-10 μM (Figure S8)
T2 sequence (Q9BY41 1-377 C153A): T1 sequence (Q9BY41 1-377) with C153A

| reactivity with GSH (in words) (reactivity with GSH) | stable to hydrolysis in the absence of thiols [1] | maximal rate constant for inactivation (WT HDAC8 (Zn2+); at saturating SAHA-TAP) | time of activity loss on preincubation of enzyme with inhibitor (WT HDAC8 (Zn2+); preincubation, data not shown) | stable in the presence of assay components [2] | inhibition of HDAC8 activity (in words) (WT HDAC8 (Zn2+); inhibitor 2–10 μM) | SMILES | percent parent compound remaining (human plasma stability) | tubulin acetylation (western blot) [3] | less potent than SAHA in cells (HH (CTCL) cells; HH and Jurkat cells) | tubulin acetylation (western blot) [4] | effect on cell proliferation (in words) (HH (CTCL) cells; all cells studied (HH, Jurkat, NIH/3T3)) | inhibition of HDAC8 (WT HDAC8 (Zn2+)) | inhibition of C153A HDAC8 (in words) (C153A HDAC8) |
| --- | --- | --- | --- | --- | --- | --- | --- | --- | --- | --- | --- | --- | --- |
| reacts rapidly with GSH | > 97% | 0.0013 s^–1 | ≤ 0.5 h | > 95% | – | CC1=C(C)C(=O)C(CONC(=O)CCCCCCC(=O)Nc2ccccc2)=C(C)C1=O [SAHA-TAP] | Approximately 72% | increased tubulin acetylation | 3–4 fold | increased tubulin acetylation | – | – | – |
| no change in the HPLC chromatogram | – | – | – | – | does not inhibit | O=C(CCCCCCC(=O)Nc1ccccc1)NOCc1ccccc1 [SAHA-OBn] | – | – | – | – | unaffected | – | – |
| – | – | – | – | – | – | O=C(CCCCCCC(=O)Nc1ccccc1)NO [SAHA, suberoylanilide hydroxamic acid, reference compound] | ~60% | – | – | – | – | > 90% | susceptible to inhibition |
